Measurements as given in patent US9624491B2, “Methods and compositions for the detection and treatment of cancer involving miRNAs and miRNA inhibitors and targets” (Memorial Sloan Kettering Cancer Center, priority 2010, dated 2017).

What was measured:
[1] = test system: FL5-12 lymphocytes; assay: IL3 depletion competition assay for cytokine-independent survival of FL5-12 lymphocytes; type: cell-based, murine; details: for IL-3 independence of FL5-12 cells: retest of individual miRNAs from secondary library screen
Method: An established in vitro assay of hematopoietic transformation (Plas, Talapatra, Edinger, Rathmell, & Thompson, 2001) was used to identify the key oncogenic activities within the 17˜92 cluster and its paralogues. All miRNAs representing families of unique seed sequences, specifically miR-17, miR-18a, miR-19b-1 (miR-19), miR-20a, miR-106a, miR-106b and miR-25 were tested (FIG. 1a). The assay is based on the IL3 dependence of FL5-12 lymphocytes, which undergo apoptosis when removed from IL3. In competition experiments, FL5-12 cells were partially transduced with GFP plus individual miRNAs or empty vector and these mixed populations were monitored by fluorescence-activated cell sorting (FACS) for changes in their relative proportions (FIG. 1b).
FL5-12 murine lymphocytes, IL3 depletion studies and viral transductions were as described (Mavrakis, et al., 2008) (Plas, Talapatra, Edinger, Rathmell, & Thompson, 2001). Cell cycle and cell death assays based on uptake of DNA staining dye (LDS751) using Cell cycle and Viacount assays from Guava Technologies were performed as reported (Mavrakis, et al., 2008). The retroviral vectors are based on murine stem cell virus (MSCV) and include the miRNA expression vectors encoding miRs 17, 18a, 19b-1 (miR-19), 106a, 106b, 25 (He, et al., 2005), the vectors encoding Notch-ICN (a gift from W. Pear) (Pear, et al., 1996) and Bcl2 (Wendel, et al., 2004), the individual shRNA vectors (FIG. 17) and the library vector (MRP) (FIGS. 18a and b). miRNA inhibitor oligonucleotides (antagomirs) MZIP19a-PA-1, MZIP19b-PA-1, and scrambled control (MZIP000-PA-1) were from System Biosciences.
The primary screen is based on c-MYC-induced apoptosis in MEFs (Evan, et al., 1992). MEFs were transduced with c-MYC and the miRNA library and cultured in puromycin to select for homogeneous c-MYC expression; apoptosis was triggered by diluting serum from 10% to 0.1%. Surviving cells remained adherent and were collected for DNA isolation, PCR amplification of the integrated miRNA library constructs, sub-cloning into pGEM-T vector, bacterial transformation, and sequence identification of ˜100 colonies. A secondary library was constructed by sub-cloning all miRNAs from the primary screen into an MSCV construct. The secondary screen is based on the IL-3 dependence of FL5-12 lymphocytes in vitro (Mavrakis, et al., 2010), (Plas, Talapatra, Edinger, Rathmell, & Thompson, 2001). FL5-12 cells were partially transduced with the pooled, GFP-tagged library and selected by IL-3 depletion. miRNAs were identified as above. Individual miRNAs were subsequently validated in the same FL5-12 assay and in vivo.

[2] = test system: T-ALL1 cells; assay: Cell number during in vitro culture of T-ALL1 cells expressing antagomirs; type: cell-based, human; details: T-ALL1, 6 d culture
Method: (§1) Given the pleiotropic and partially overlapping pattern of tumor suppressor gene regulation by multiple miRNAs, the effect of miRNA antagomirs on the growth rate and viability of two human T-ALL cell lines, T-ALL1 and Koptk1, were assessed. The human T-ALL1 cell line expresses high levels of miR-19a, miR-19b, miR-26a and miR-92 but only low levels of other miRNAs, e.g. miR-148a and the randomly chosen miR-182 (FIG. 27b inset). […] Results in the Koptk1 cell line were analogous to those in the T-ALL1 cell line (FIG. 28).
(§2) FL5-12 murine pro B-lymphocytes, cell cycle and apoptosis studies and viral transductions were as described (Mavrakis, et al., 2008), (Plas, Talapatra, Edinger, Rathmell, & Thompson, 2001). T-ALL cell lines, including Jurkat, were cultured in RPMI 1640 medium supplemented with 10-20% fetal calf serum, 100 U/ml penicillin G and 100 μg/ml streptomycin at 37° C. in a humidified atmosphere under 5% CO2. All vectors are based on murine stem cell virus (MSCV) and include the miRNA expression vector encoding all miRNAs described (He, et al., 2005), NOTCH1-ICN (Pear, et al., 1996) and the individual shRNA vectors (protein knockdown by shRNAs; FIG. 10). The miRNA pooled library (He, et al., 2005) is a generous gift from G. J. Hannon and has been expanded by PCR cloning to contain ˜300 miRNAs. The antagomirs MZIP19a-PA-1, MZIP19b-PA-1, MZIP26a-PA-1, MZIP92a-PA-1, MZIP148a-PA-1, MZIP182-PA1, MZIP223-PA-1 and scrambled control (MZIP000-PA-1) were from System Biosciences.

[3] = test system: T-ALL1 cells; assay: Viability of T-ALL1 cells transduced with antagomirs; type: cell-based, human
Method: as §1, §2

[4] = test system: PTEN and BCL2L11; assay: Quantitative RT-PCR of BCL2L11 and PTEN mRNA in T-ALL1 cells; type: cell-based, human
Excerpt: (§3) Total RNA and miRNA-enriched RNA was extracted using the Allprep DNA/RNA/Protein and miRNeasy Mini kits. Pathological diagnosis was by expert hematopathologists at Weill Cornell Medical Center. cDNA synthesis, PCR and analysis by the ΔΔ Ct method were as described (Mavrakis, et al., 2008) and utilized Taqman Gene Expression Assays: Bcl2l11 (Mm00437796_m1), BCL2L11 (Hs00197982_m1), Pten (Mm01212532_m1), PTEN (Hs02621230_s1), Nf1 (Mm00812430_m1), NF1 (Hs01035104_m1), Ikzf1 (Mm01187878_m1), IKZF1 (Hs00172991_m1), Fbxw7 (Mm00504452_m1), FBXW7 (Hs00217794_m1), Phf6 (Mm00804415_m1), and Mouse GAPD (GAPDH) (4352932, Applied Biosystems). Expression was normalized to RNU6B (001093, Applied Biosystems).

[5] = test system: PTEN, BCL2L11, PHF6, IKZF1, NF1, FBXW7; assay: 3′UTR reporter, quantitative PCR and immunoblot assays of tumor suppressor genes in murine leukemias; type: cell-based; details: murine T-ALLs expressing NOTCH1 and miRNA, mRNA, protein
Method: Immunoblots of whole cell lysates were performed as described (Wendel, et al., 2004). Antibodies were against Bim/Bcl2l11 (AAP-330, 1:1000, Assay Designs), Nf1 (sc67, 1:100, Santa Cruz), Cdc4/Fbxw7 (ab7405, 1:500, Abeam), Ikzf1 (sc-13039, 1:500, Santa Cruz), Phf6 (NB100-79861, 1:1000, Novus Biologicals), Pten (9559, 1:1000, Cell Signaling), tubulin (1:5000; Sigma, B-5-1-2) and actin (1:5000; Sigma, AC-15).
as §3
The mouse FBXW7 (bp 2793-4139; acc. no. NM_001177773), human NF1 (bp 10033-10666; acc. no NM_000267), human PHF6 (bp position 3271-4299; acc. no. NM_001015877) and Bim (bp. 3155-4773; acc. no. NM_009754) 3′UTR fragments were generated by PCR and cloned into the psi-CHECK-2 vector (Promega) with the exception of the IKZF1 3′UTR, which was purchased from Genecopoeia (cat no. HmiT000397b, by 2343-4471 of UTR). The assays were performed as described (Xiao, et al., 2008).

## CN(C)C(=N)N=C(N)N [metformin, reference compound]
[1]; treated with 1 μM metformin to activate AMP-kinase
  enrichment of cells co-expressing miR-19/GFP following IL3 depletion: Neither the other cDNAs nor metformin treatment abrogated miR-19's protective function

## TATTGCAATTGTCCCGGACTATCTTCCTGTCAGACAGGCCGGGACAAGTGCAATATTTTT (listed as DNA, chemistry not fully specified) [antagomir against miR-92, antagomir to miR92a, miRZIP from System Biosciences]
[2]
  growth rate: reduce growth rate
[3]
  cell viability: significantly decrease cell viability
[4]
  expression of PTEN and BCL2L11: de-repress the tumor suppressor genes PTEN and BCL2L11

## TCAGTGCGCTACAGAACGTTATCTTCCTGTCAGACAAAGTTCTGTAGTGCACTGATTTTT (listed as DNA, chemistry not fully specified) [antagomir against miR-148a, antagomir to miR148, miRZIP from System Biosciences]
[2]
  growth rate: no significant (p>0.05) effect
[3]
  cell viability: no significant (p>0.05) effect
[4]
  expression of PTEN and BCL2L11: no significant (p>0.05) effect

## TTCAAGTGATCCAGGATCGGATCTTCCTGTCAGAGCCTATCCTGGATTACTTGAATTTTT (listed as DNA, chemistry not fully specified) [antagomir against miR-26a, antagomir to miR26a, miRZIP from System Biosciences]
[2]
  growth rate: reduce growth rate
[3]
  cell viability: significantly decrease cell viability
[4]
  expression of PTEN and BCL2L11: de-repress the tumor suppressor genes PTEN and BCL2L11

## miR-20a: miRNA, UAAAGUGCUUAUAGUGCAGGUAG (SEQ ID NO: 3) (expressed or natural sequence; listed as Homo sapiens)
[5]
  regulation of tumor suppressor genes: reduce levels of PTEN and PHF6 protein and mRNA in leukemic cells

## miR-26: miRNA, UUCAAGUAAUCCAGGAUAGGCU (SEQ ID NO: 5) (expressed or natural sequence; listed as Homo sapiens)
[1]
  IL-3 independence of FL5-12 cells: confirmed to confer IL-3 independence on FL5-12 cells
[5]
  regulation of tumor suppressor genes: reduce levels of PTEN and PHF6 protein and mRNA in leukemic cells

## miR-92: miRNA, UAUUGCACUUGUCCCGGCCUGU (SEQ ID NO: 6) (expressed or natural sequence; listed as Homo sapiens)
[5]
  regulation of tumor suppressor genes: affects IKZF1 and FBWX7 but does not target the murine NF1

## miR-223: miRNA, UGUCAGUUUGUCAAAUACCCCA (SEQ ID NO: 10) (expressed or natural sequence; listed as Homo sapiens)
[1]
  IL-3 independence of FL5-12 cells: confirmed to confer IL-3 independence on FL5-12 cells
[5]
  regulation of tumor suppressor genes: strongly regulates FBXW7 reporter activity and protein levels

B1: TTTGGCACTGGTAGAACTCCCAATCTTCCTGTCAGAGTGTGAGTTCTACCATTGCCAAATTTTT (nucleic acid)
antisense: TTTGGCACTGGTAGAACTCCCAATCTTCCTGTCAGAGTGTGAGTTCTACCATTGCCAAATTTTT
modifications: listed as DNA, chemistry not fully specified
notes: control antagomir to the randomly chosen miR-182
[2]
  growth rate: no significant (p>0.05) effect
[3]
  cell viability: no significant (p>0.05) effect
[4]
  expression of PTEN and BCL2L11: no significant (p>0.05) effect
